Experimental data as given in PubChem BioAssay (NCI).
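Following 48 hours of exposure in 96-well plates, responses at five concentrations were used to interpolate endpoints linearly. GI50 marks 50% less growth. The concentration for full growth arrest is given as TGI.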

Legend:
Experiment in all cases: growth of human tumour cells (NCI), 48 h
[1] = test system: 786-0 renal
[2] = test system: ACHN renal
[3] = test system: COLO 205 colon
[4] = test system: IGROV1 ovarian
[5] = test system: MOLT-4 leukemia
[6] = test system: NCI-H23 lung
[7] = test system: SF-295 CNS
[8] = test system: SN12C renal
[9] = test system: UACC-257 melanoma

Compound | TGI [1] | TGI [2] | TGI [3] | TGI [4] | TGI [5] | TGI [6] | TGI [7] | TGI [8] | TGI [9] | GI50 [1] | GI50 [2] | GI50 [4] | GI50 [5] | GI50 [6] | GI50 [7] | GI50 [8] | GI50 [9] | GI50 [3]
CC1CCC2N(C1)CC1C3(O)CC45OC6(O)C(O)CCC4(C)C6CCC5C3(O)CC(O)C1(O)C2(C)O (stereo not given) | > 100 µM | > 100 µM | > 100 µM | > 100 µM | > 100 µM | > 100 µM | > 100 µM | > 100 µM | > 100 µM |  |  |  |  |  |  |  |  | 
CCCCCCCCCCCCOP(N)(=O)OCCCCCCCCCCCC | > 100 µM | > 100 µM | > 100 µM | > 100 µM | > 100 µM | > 100 µM | > 100 µM | > 100 µM | > 100 µM |  |  |  |  |  |  |  |  | 
CC1=NN(C(=O)c2ccccc2O)C(=O)/C1=C/c1cccc([N+](=O)[O-])c1 | > 100 µM | > 100 µM | > 100 µM |  | > 100 µM | > 31.8 µM | > 100 µM | 98.7 µM | > 100 µM |  |  |  |  |  |  |  |  | 
COc1cnc2cc(C(=O)O)c3ccccc3c2c1 | > 100 µM | > 100 µM | > 100 µM | > 100 µM | > 100 µM | > 100 µM | > 100 µM | > 100 µM | > 100 µM |  |  |  |  |  |  |  |  | 
C#CCN(Cc1ccc2nc(N)[nH]c(=O)c2c1)c1ccc(C(=O)NC(CCC(=O)O)C(=O)O)cc1 (stereo not given) | > 100 µM | > 100 µM | > 100 µM | > 100 µM | > 100 µM | > 100 µM | > 100 µM | > 100 µM | > 100 µM |  |  |  |  |  |  |  |  | 
N#CC1C=Cc2ccccc2N1C(=O)Oc1ccccc1 (stereo not given) | > 100 µM | > 100 µM | > 100 µM | > 100 µM | 93.8 µM | > 100 µM |  | > 100 µM | > 100 µM |  |  |  |  |  |  |  |  | 
COc1ccc2nc3ccccc3c(NCCCCN(C)CCCl)c2c1 | 0.185 µM | 0.132 µM | 0.0789 µM | 0.877 µM |  | > 100 µM | 1.17 µM | 0.128 µM | 4.93 µM |  |  |  |  |  |  |  |  | 
CC1(C)CC[C@]2(C(N)=O)CC[C@]3(C)C(=CC[C@@H]4[C@@]5(C)C/C(=C/c6ccncc6)C(=O)C(C)(C)[C@@H]5CC[C@]43C)[C@@H]2C1 | 7.62 µM | 4.33 µM |  | 6.6 µM | 6.02 µM | 9.62 µM | 3.42 µM | 3.67 µM | 6.68 µM | 2.25 µM | 2.02 µM | 2.29 µM | 2 µM | 2.89 µM | 1.67 µM | 1.82 µM | 2.32 µM | 
COc1cc([N+](=O)[O-])c2ncccc2c1[N+](=O)[O-] | 23.3 µM | 16.5 µM | 22.9 µM |  | > 100 µM | 16.1 µM | 14.3 µM | 25.3 µM | 31.2 µM | 10.7 µM | 4.75 µM |  | 4.92 µM | 3.91 µM | 4.51 µM | 12.5 µM | 13.5 µM | 10.1 µM
CC1=C(C(=O)Nc2ccc(Cl)c(Cl)c2)C(c2ccccc2O)NC(=O)N1 (stereo not given) | > 50 µM | > 50 µM | > 50 µM | > 50 µM | > 50 µM |  | > 50 µM | > 50 µM | > 50 µM | > 50 µM | > 50 µM | > 50 µM | > 50 µM |  | 40.3 µM | 34.6 µM | > 50 µM | 28.3 µM
COc1cccc(C2NC(=S)NC(C)=C2C(=O)Nc2ccc(Cl)c(Cl)c2)c1 (stereo not given) | 24 µM | 23.2 µM | 30.5 µM | 28.5 µM | > 50 µM |  | 21.6 µM | 17.1 µM | 28.9 µM | 10.7 µM | 10.1 µM | 11.3 µM | > 50 µM |  | 9.72 µM | 9.14 µM | 12.4 µM | 9.41 µM
COC(OC)c1cc2c(cc1C(=O)[C@@]13CCC[C@@H]1NC(=O)O3)OCO2 | > 100 µM | > 100 µM |  | > 100 µM | > 100 µM | > 100 µM | > 100 µM | > 100 µM | > 100 µM |  |  |  |  |  |  |  |  | 
CCOc1cc(-c2ccc[nH]2)[nH]c1/C=C1\N=C(C)C(C(=O)OC)=C1C | 0.259 µM | 1.16 µM | 0.304 µM |  |  | 1.92 µM |  | 1.72 µM | 0.939 µM | 0.0329 µM | 0.0344 µM |  |  | 0.0876 µM |  | 0.0444 µM | 0.0551 µM | 0.031 µM
N=C1C=C(N)C(=O)c2[nH]c(=O)ccc21 | 3.48 µM | 3.1 µM | 3.14 µM | 3.39 µM |  | 4.09 µM | 31.2 µM | 3.16 µM | 16.6 µM |  |  |  |  |  |  |  |  | 
CCOC(=O)C1COc2cc(-c3cc(=O)c4ccccc4o3)ccc2O1 (stereo not given) | > 100 µM | > 100 µM | > 100 µM | > 100 µM | > 100 µM | > 100 µM | > 100 µM | > 100 µM |  |  |  |  |  |  |  |  |  | 
COc1cc(NC(=O)Nc2cnc(Nc3ccc(N4CCOCC4)cc3)nc2Oc2cccc(OC)c2)cc(OC)c1 | 1.88 µM | 6.84 µM |  | 7.77 µM | > 50 µM | 11.8 µM | 3.61 µM | 3.71 µM | 16.8 µM | 0.928 µM | 1.61 µM | 1.8 µM | 36.8 µM | 1.82 µM | 1.19 µM | 1.3 µM | 3.36 µM | 
COc1cc2c(c(OC)c1OC)-c1ccc(SC)c(=O)cc1[C@@H](NC(=O)c1ccc(Cl)cc1)CC2 | 15.8 µM | > 100 µM | 0.0265 µM | > 100 µM | > 100 µM |  | < 0.01 µM | 12.7 µM | > 100 µM |  |  |  |  |  |  |  |  | 
Cc1cc([N+](=O)[O-])c(C)c(Br)c1C | > 100 µM | > 100 µM | > 100 µM | > 100 µM |  | > 100 µM | > 100 µM | > 100 µM | > 100 µM |  |  |  |  |  |  |  |  | 
CSC1=NCC2(S1)c1ccccc1N(C(=O)OC(C)(C)C)C2N1CCCCC1 (stereo not given) | > 100 µM |  |  | > 100 µM | > 100 µM |  |  | > 100 µM | > 100 µM | 16.2 µM |  | > 100 µM | > 100 µM |  |  | > 100 µM | > 100 µM | 
CN1CCN(c2nc(-c3ccncc3)nc3sc4c(c23)CCCCCC4)CC1 | 20.2 µM | 20.5 µM | 17.2 µM | 22 µM | 16.2 µM | 24.3 µM |  | 22 µM | 23 µM | 4.77 µM | 7.99 µM | 8.16 µM | 3.8 µM | 11.4 µM |  | 5.64 µM | 10.6 µM | 4.94 µM
O=C(Nc1cccc(NC(=O)c2cc(=O)c3ccccc3o2)n1)c1cc(=O)c2ccccc2o1 | > 100 µM | > 100 µM | > 100 µM | > 100 µM | > 100 µM | > 100 µM |  |  | > 100 µM |  |  |  |  |  |  |  |  | 
